{"source": "patent US12295973B2", "about": "(Fred Hutchinson Cancer Center, priority 2017, dated 2025)", "tested_on": "mice exposed to L-TBI", "experiment": "Mouse survival after lethal total body irradiation (L-TBI, 840cGy)", "assay_type": "in vivo", "settings": "MDV3100 24 h after L-TBI, alone", "text": "Description. Inhibition of sex steroids, which can be achieved in a reversible fashion pharmacologically, is a well-described strategy to promote lymphopoiesis in the BM and thymus^8,7,14,15. Although the most common method of sex steroid ablation clinically has been to use LHRH-agonists, it was described that an LHRH-Antagonist represents a more rational approach to promote immediate ablation of sex steroids for immune regeneration as it is far more rapid and abrogates the initial surge in sex steroids that LHRH-Agonist cause^16. Taken together with the impact of sex steroid inhibition on HSC function and the rapid regenerative effects of LHRH-Ant, it was hypothesized that LHRH-Ant could represent a rational non-cellular medical countermeasure for mitigating radiation injury and promoting hematopoietic regeneration when administered after hematopoietic insult. […] It was then tested if LHRH-Ant could mediate even greater mouse survival when administered multiple times.\nMethods. […] B6.SJL-Ptprca Pepcb/BoyJ (CD45.1) male mice (The Jackson Laboratory) were used between 7 and 12 weeks of age for transplant. Mice were irradiated with a Gammacell 40 Irradiator (Cs-137), with an average dose rate of 95 cGy/min, in a plexiglass mouse pie cage. To assess mouse survival after radiation, mice were monitored for up to 60 days after TBI. To adjust for differences in weight, identical mice were purchased from Jackson and cages randomly distributed over different groups. All animal protocols were approved by the Memorial Sloan Kettering Cancer Center Institutional Animal Care and Use Committee.\nReagents: Degarelix (as acetate), a LHRH-Ant (Firmagon), was resuspended in sterile water for injection and administered S.C. to mice at a dose of 40 mg/kg. To evaluate the radiomitigative effect of LHRH-Ant on survival, mice were treated subcutaneously (S.C.) with a single injection of the LHRH-Ant or a saline control solution (PBS). Degarelix was purchased from the Memorial Sloan-Kettering Cancer Center Pharmacy. […] MDV3100 (selleckchem) was resuspended in a mixture of 45% PBS, 45% PEG and 10% DMSO and administered daily to mice by oral gavage at a dose of 10 mg/kg. 5-FU (InvivoGen) was administered to mice intraperitoneally (I.P.) at a dose of 150 mg/kg once every 7 days consecutively for 3 times as previously described^34,47,49.", "data": [{"smiles": "CNC(=O)c1ccc(N2C(=S)N(c3ccc(C#N)c(C(F)(F)F)c3)C(=O)C2(C)C)cc1F", "note": "[MDV3100, enzalutamide]", "values": [{"measurement": "survival after L-TBI", "result": "did not mediate any survival benefit"}]}]}
